One assay concerns the target T1, CDK2-CYCLINA (Homo sapiens, UniProt P24941).
T1 construct: purchased Millipore
The experiment in a line: Microfluidic LabChip kinase inhibition assay, CDK2-CyclinA. To be noted: 50 μM ATP. Type of assay: biochemical.

Another assay deals with CDK1/B (Homo sapiens, UniProt P06493). As to the kind of experiment: Additional inhibition assay, CDK1/B. The assay is classed as biochemical.
In another assay the target is CDK7 CyclinH (Homo sapiens, UniProt P50613). The experiment in a line: Additional inhibition assay, CDK7 CyclinH. Type of assay: biochemical.
The next assay concerns the target CDK4-CYCLIND1 (Homo sapiens, UniProt P11802). The experiment in a line: Microfluidic LabChip kinase inhibition assay, CDK4-CyclinD1. To be noted: CDK4 CyclinD1 IC50 (μM), 200 μM ATP, second value in parentheses on the next line.
A further assay deals with T2, CDK9-CYCLINT1 (Homo sapiens, UniProt P50750).
T2 construct: purchased Carna
As to the kind of experiment: Microfluidic LabChip kinase inhibition assay, CDK9-CyclinT1. Type of assay: biochemical. To be noted: 10 μM ATP, read-out: CDK9 CyclinT1 IC50.

The structures appear in SMILES notation. Where two headings read alike, the source gives them in different places. A value given as a limit tells only on which side of the number the result lay.

This note sets out measurements from patent US20230065740A1, “CYCLIN-DEPENDENT KINASE INHIBITORS” (SPV THERAPEUTICS INC., priority 2018, published 2023).

One may read the IC50 as the concentration that inhibits the measured activity by half.

CDK7 CyclinH, sequence (P50613 whole entry): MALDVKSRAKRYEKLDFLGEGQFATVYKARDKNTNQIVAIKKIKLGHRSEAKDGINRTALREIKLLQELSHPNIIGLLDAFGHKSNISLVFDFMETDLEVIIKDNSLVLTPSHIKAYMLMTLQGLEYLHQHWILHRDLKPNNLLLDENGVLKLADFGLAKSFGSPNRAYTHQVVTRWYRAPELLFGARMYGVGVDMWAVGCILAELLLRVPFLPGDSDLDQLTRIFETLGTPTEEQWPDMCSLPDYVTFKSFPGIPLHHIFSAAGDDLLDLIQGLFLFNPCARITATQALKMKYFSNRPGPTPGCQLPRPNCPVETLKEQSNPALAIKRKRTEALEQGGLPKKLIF
CDK7 CyclinH, sequence (P51946 whole entry partner): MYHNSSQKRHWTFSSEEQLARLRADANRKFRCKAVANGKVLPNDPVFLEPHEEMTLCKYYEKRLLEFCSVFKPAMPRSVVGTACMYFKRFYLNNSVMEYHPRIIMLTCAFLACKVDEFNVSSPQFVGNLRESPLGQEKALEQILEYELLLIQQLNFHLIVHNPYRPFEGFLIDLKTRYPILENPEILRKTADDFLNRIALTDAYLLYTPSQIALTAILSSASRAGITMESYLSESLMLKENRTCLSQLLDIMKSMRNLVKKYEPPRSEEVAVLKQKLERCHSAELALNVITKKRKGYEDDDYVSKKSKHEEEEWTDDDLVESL
CDK7 CyclinH, sequence (P51948 whole entry partner): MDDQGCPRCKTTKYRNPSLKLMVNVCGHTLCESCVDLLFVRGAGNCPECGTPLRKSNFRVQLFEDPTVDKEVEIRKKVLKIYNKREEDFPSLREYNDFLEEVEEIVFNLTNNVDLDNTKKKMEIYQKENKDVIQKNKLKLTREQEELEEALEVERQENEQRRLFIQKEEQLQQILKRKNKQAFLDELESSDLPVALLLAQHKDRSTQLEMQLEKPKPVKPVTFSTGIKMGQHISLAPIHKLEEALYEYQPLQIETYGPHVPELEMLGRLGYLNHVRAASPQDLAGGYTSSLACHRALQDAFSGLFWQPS
CDK4-CYCLIND1, sequence (P11802 whole entry): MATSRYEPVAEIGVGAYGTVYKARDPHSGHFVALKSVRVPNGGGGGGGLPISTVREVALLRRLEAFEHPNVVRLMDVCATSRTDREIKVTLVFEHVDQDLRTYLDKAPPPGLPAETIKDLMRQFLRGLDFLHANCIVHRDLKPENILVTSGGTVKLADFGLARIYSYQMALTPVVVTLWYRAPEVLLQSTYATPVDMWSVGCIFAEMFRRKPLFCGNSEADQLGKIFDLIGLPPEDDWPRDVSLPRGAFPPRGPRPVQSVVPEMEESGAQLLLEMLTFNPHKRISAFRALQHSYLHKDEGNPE
CDK4-CYCLIND1, sequence (P24385 whole entry partner): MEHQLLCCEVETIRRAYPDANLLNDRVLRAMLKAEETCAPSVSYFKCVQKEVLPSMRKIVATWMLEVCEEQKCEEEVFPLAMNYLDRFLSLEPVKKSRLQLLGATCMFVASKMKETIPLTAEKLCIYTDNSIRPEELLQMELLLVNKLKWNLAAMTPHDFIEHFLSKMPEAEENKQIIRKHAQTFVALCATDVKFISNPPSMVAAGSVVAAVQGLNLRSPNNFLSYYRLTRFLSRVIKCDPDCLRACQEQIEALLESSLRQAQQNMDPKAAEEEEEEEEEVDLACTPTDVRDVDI
CDK1/B, sequence (P06493 whole entry): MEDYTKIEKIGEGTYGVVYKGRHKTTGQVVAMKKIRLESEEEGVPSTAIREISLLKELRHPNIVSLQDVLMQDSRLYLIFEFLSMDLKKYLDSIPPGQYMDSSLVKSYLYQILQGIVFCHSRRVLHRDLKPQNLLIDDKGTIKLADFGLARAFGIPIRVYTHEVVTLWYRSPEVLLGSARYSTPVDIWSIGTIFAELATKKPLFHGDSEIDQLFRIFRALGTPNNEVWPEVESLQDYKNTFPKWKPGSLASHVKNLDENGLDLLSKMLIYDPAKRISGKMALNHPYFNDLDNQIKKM
CDK1/B, sequence (P14635 whole entry partner): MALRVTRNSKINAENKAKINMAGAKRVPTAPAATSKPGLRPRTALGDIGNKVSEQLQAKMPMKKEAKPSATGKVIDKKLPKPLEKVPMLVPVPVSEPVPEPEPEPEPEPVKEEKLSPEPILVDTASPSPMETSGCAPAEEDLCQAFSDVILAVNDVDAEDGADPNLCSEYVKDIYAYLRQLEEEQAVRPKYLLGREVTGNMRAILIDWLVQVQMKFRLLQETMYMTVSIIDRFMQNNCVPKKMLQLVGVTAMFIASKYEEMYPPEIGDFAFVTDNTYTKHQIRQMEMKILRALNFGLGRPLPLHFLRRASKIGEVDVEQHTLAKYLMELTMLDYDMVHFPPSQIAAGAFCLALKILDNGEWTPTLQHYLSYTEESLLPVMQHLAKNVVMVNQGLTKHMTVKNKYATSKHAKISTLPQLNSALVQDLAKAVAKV
T2 sequence (P50750 whole entry): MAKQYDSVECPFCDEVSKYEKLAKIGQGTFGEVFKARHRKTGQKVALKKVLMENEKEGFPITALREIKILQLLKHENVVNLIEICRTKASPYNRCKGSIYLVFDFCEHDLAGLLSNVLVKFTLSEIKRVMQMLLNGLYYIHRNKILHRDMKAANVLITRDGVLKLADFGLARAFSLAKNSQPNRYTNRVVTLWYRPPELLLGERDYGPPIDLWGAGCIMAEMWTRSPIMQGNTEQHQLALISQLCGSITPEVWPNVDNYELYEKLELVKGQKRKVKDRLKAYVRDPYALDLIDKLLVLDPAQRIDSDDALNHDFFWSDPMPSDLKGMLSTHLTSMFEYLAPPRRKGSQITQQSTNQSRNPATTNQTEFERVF
T2 sequence (O60563 whole entry partner): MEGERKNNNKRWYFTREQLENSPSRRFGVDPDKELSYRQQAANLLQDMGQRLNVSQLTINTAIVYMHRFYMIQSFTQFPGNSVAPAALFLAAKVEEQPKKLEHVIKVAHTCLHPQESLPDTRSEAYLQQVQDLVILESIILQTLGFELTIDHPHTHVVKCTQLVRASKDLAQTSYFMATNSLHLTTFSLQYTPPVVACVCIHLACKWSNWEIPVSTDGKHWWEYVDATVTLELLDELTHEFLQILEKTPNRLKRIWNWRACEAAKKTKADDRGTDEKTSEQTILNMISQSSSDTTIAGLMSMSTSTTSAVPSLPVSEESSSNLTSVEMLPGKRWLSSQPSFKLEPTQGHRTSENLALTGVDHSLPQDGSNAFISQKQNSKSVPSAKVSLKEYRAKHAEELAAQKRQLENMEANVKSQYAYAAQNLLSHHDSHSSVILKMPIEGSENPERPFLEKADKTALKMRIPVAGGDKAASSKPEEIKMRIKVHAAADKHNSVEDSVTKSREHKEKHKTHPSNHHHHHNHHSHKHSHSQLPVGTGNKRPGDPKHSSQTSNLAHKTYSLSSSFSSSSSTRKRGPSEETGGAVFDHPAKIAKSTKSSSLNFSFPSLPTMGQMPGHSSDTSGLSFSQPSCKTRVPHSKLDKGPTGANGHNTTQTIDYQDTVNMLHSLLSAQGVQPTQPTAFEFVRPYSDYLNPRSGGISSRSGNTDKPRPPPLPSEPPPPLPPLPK

On to `CN(C)[C@@H]1CCN(C(=O)c2ccc(Nc3ncc4c(n3)N(C3CCCC3)C3(CCNC3=O)C4)cc2)C1` (stereo partly drawn) [Compound C181, 7′-cyclopentyl-2′-((4-((R)-3-(dimethylamino)pyrrolidine-1-carbonyl)phenyl)amino)-5′,7′-dihydrospiro[pyrrolidine-3,6′-pyrrolo[2,3-d]pyrimidin]-2-one], for which the IC50 against CDK2-CYCLINA (Table 3a) is 1940 nM; against CDK2-CYCLINA (Table 3b), 1940 nM; against CDK1/B (Table 3a), 3550 nM; against CDK1/B (Table 3b), 3550 nM; against CDK7 CyclinH (Table 3a), > 10000 nM; on CDK7 CyclinH (Table 3b), > 10000 nM. Also, the IC50 at CDK4-CYCLIND1 (Table 3a) amounted to 0.0679 µM; at CDK4-CYCLIND1 (Table 3b), 0.0679 µM; on CDK9-CYCLINT1 (Table 3a), 60.2 nM.
Consider `CC1CN(c2ccc(Nc3ncc4c(n3)N(C3CCCC3)C3(CCNC3=O)C4)cc2)CC(C)N1` (stereo not shown) [Compound C207, 7′-cyclopentyl-2′-((4-(3,5-dimethylpiperazin-1-yl)phenyl)amino)-5′,7′-dihydrospiro[pyrrolidine-3,6′-pyrrolo[2,3-d]pyrimidin]-2-one], for which the IC50 on CDK2-CYCLINA (Table 3a) is 9570 nM; against CDK2-CYCLINA (Table 3b) it was 9570 nM; on CDK1/B (Table 3a), > 10000 nM; at CDK1/B (Table 3b), > 10000 nM; on CDK7 CyclinH (Table 3a), > 10000 nM; against CDK7 CyclinH (Table 3b), > 10000 nM. Besides, the figures for the IC50 on CDK4-CYCLIND1 (Table 3a), at CDK4-CYCLIND1 (Table 3b) and on CDK9-CYCLINT1 (Table 3a) were 0.341 µM, 0.341 µM and 148 nM, respectively.
Regarding `CC1CN(c2ccc(Nc3ncc4c(n3)N(C3CCCC3)C3(CC(=O)NC3=O)C4)cc2)CC(C)N1` (stereo not shown) [Compound C208, 7′-cyclopentyl-2′-((4-(3,5-dimethylpiperazin-1-yl)phenyl)amino)-5′,7′-dihydrospiro[pyrrolidine-3,6′-pyrrolo[2,3-d]pyrimidine]-2,5-dione], the IC50 against CDK2-CYCLINA (Table 3a) is 2280 nM; at CDK2-CYCLINA (Table 3b), 2280 nM; against CDK1/B (Table 3a), 2020 nM; against CDK1/B (Table 3b), 2020 nM; on CDK7 CyclinH (Table 3a), > 10000 nM; against CDK7 CyclinH (Table 3b), > 10000 nM. Also, the half-inhibitory concentration (IC50) at CDK4-CYCLIND1 (Table 3a) worked out at 0.0668 µM; on CDK4-CYCLIND1 (Table 3b), 0.0668 µM; on CDK9-CYCLINT1 (Table 3a), 79.9 nM.
For the compound `CC(C)c1ccc(Nc2ncc3c(n2)N(C2CCCC2)C2(CCNC2=O)C3)cc1` (stereo not shown) [Compound C209, 7′-cyclopentyl-2′-((4-isopropylphenyl)amino)-5′,7′-dihydrospiro[pyrrolidine-3,6′-pyrrolo[2,3-d]pyrimidin]-2-one], the half-inhibitory concentration (IC50) on CDK2-CYCLINA (Table 3a) was 5010 nM; against CDK2-CYCLINA (Table 3b), 5010 nM; at CDK1/B (Table 3a) it was > 10000 nM; against CDK1/B (Table 3b), > 10000 nM; on CDK7 CyclinH (Table 3a) it was > 10000 nM; at CDK7 CyclinH (Table 3b), > 10000 nM. Moreover, the 50% inhibitory concentration (IC50) was 1.38 µM on CDK4-CYCLIND1 (Table 3a), 1.38 µM at CDK4-CYCLIND1 (Table 3b) and 153 nM on CDK9-CYCLINT1 (Table 3a).
Take `CN(C)CCOc1ccc(Nc2ncc3c(n2)N(C2CCCC2)C2(CCNC2=O)C3)nc1` (stereo not shown) [Compound C210, 7′-cyclopentyl-2′-((5-(2-(dimethylamino)ethoxy)pyridin-2-yl)amino)-5′,7′-dihydrospiro[pyrrolidine-3,6′-pyrrolo[2,3-d]pyrimidin]-2-one]: the half-maximal inhibitory concentration (IC50) against CDK2-CYCLINA (Table 3a), on CDK2-CYCLINA (Table 3b), at CDK1/B (Table 3a), at CDK1/B (Table 3b), at CDK7 CyclinH (Table 3a) and at CDK7 CyclinH (Table 3b) was > 10000 nM throughout. Moreover, the IC50 was 3.96 µM on CDK4-CYCLIND1 (Table 3a), 3.96 µM at CDK4-CYCLIND1 (Table 3b), > 10000 nM on CDK9-CYCLINT1 (Table 3a) and > 10000 nM on CDK9-CYCLINT1 (Table 3b).
